Experimental data: PMC5218480 (PLoS ONE, 2017)

Test system: MV-4-11 cells
Assay: Gene expression microarray analysis (Affymetrix PrimeView) and GSEA
Format: cell-based, human
Set-up: RFU PODN (11730768_x_at) / Fold change /veh PODN (11730768_x_at) / RFU LINC00158 (11744669_a_at) / Fold change /veh LINC00158 (11744669_a_at) / RFU DUSP10 (11751237_a_at) / Fold change /veh DUSP10 (11751237_a_at) / RFU ID3 (11757404_x_at) / Fold change /veh ID3 (11757404_x_at) / RFU PLEKHG5 (11737974_s_at) / Fold change /veh PLEKHG5 (11737974_s_at) / RFU LRRC4B (11730491_at) / Fold change /veh LRRC4B (11730491_at) / RFU GIMAP4 (11747438_a_at) / Fold change /veh GIMAP4 (11747438_a_at) / RFU KRT8 (11758183_x_at) / Fold change /veh KRT8 (11758183_x_at) / RFU CNN1 (11734310_a_at) / Fold change /veh CNN1 (11734310_a_at) / RFU VPS37D (11726825_at) / Fold change /veh VPS37D (11726825_at) / RFU C10orf10 (11716522_x_at) / Fold change /veh C10orf10 (11716522_x_at) / RFU KIR2DL2 /// KIR2DL4 /// KIR2DL5A /// KIR2DL5B /// KIR2DS1 /// KIR2DS2 /// KIR2DS3 /// KIR2DS4 /// KIR3DL3 /// KIR3DL3 /// KIR3DS1 (11738374_at) / Fold change /veh KIR2DL2 /// KIR2DL4 /// KIR2DL5A /// KIR2DL5B /// KIR2DS1 /// KIR2DS2 /// KIR2DS3 /// KIR2DS4 /// KIR3DL3 /// KIR3DL3 /// KIR3DS1 (11738374_at) / RFU C1QL1 (11718748_at) / Fold change /veh C1QL1 (11718748_at) / RFU TMPRSS4 (11747572_a_at) / Fold change /veh TMPRSS4 (11747572_a_at) / RFU HAMP (11756126_x_at) / Fold change /veh HAMP (11756126_x_at) / RFU RNFT2 (11725882_a_at) / Fold change /veh RNFT2 (11725882_a_at) / RFU NR4A2 (11747474_a_at) / Fold change /veh NR4A2 (11747474_a_at) / RFU ABCC12 (11746883_a_at) / Fold change /veh ABCC12 (11746883_a_at) / RFU TMEM136 (11760407_x_at) / Fold change /veh TMEM136 (11760407_x_at) / RFU CLDN22 /// WWC2 (11732394_at) / Fold change /veh CLDN22 /// WWC2 (11732394_at) / RFU HLA-DPB1 (11760878_x_at) / Fold change /veh HLA-DPB1 (11760878_x_at) / RFU SPINT1 (11716480_a_at) / Fold change /veh SPINT1 (11716480_a_at) / RFU GAP43 (11754022_s_at) / Fold change /veh GAP43 (11754022_s_at) / RFU A4GNT (11735810_at) / Fold change /veh A4GNT (11735810_at) / RFU PRB3 (11715151_x_at) / Fold change /veh PRB3 (11715151_x_at) / RFU TUBB4B (11761932_at) / Fold change /veh TUBB4B (11761932_at) / RFU CAPN14 (11732068_a_at) / Fold change /veh CAPN14 (11732068_a_at) / RFU TMCC2 (11721928_a_at) / Fold change /veh TMCC2 (11721928_a_at) / RFU IRGQ (11745062_a_at) / Fold change /veh IRGQ (11745062_a_at) / RFU FAM174B (11720279_a_at) / Fold change /veh FAM174B (11720279_a_at) / RFU TMPRSS4 (11748680_a_at) / Fold change /veh TMPRSS4 (11748680_a_at) / RFU FAM212B (11763350_a_at) / Fold change /veh FAM212B (11763350_a_at) / RFU PLEKHG5 (11743358_a_at) / Fold change /veh PLEKHG5 (11743358_a_at) / RFU ZSCAN30 (11745921_a_at) / Fold change /veh ZSCAN30 (11745921_a_at) / RFU CMKLR1 (11741424_a_at) / Fold change /veh CMKLR1 (11741424_a_at) / RFU LOC101060620 /// MAPK8IP1 (11723275_at) / Fold change /veh LOC101060620 /// MAPK8IP1 (11723275_at) / RFU SPTSSB (11747773_x_at) / Fold change /veh SPTSSB (11747773_x_at) / RFU PRSS12 (11739890_at) / Fold change /veh PRSS12 (11739890_at) / RFU BIN1 (11741810_x_at) / Fold change /veh BIN1 (11741810_x_at) / RFU WNT11 (11732464_a_at) / Fold change /veh WNT11 (11732464_a_at) / RFU C10orf10 (11716521_a_at) / Fold change /veh C10orf10 (11716521_a_at) / RFU C5orf56 (11738089_at) / Fold change /veh C5orf56 (11738089_at) / RFU CYB561 (11721691_x_at) / Fold change /veh CYB561 (11721691_x_at) / RFU ANKRD19P (11752326_a_at) / Fold change /veh ANKRD19P (11752326_a_at) / RFU OR2T12 /// OR2T33 /// OR2T8 (11738714_s_at) / Fold change /veh OR2T12 /// OR2T33 /// OR2T8 (11738714_s_at) / RFU VCAN (11748164_a_at) / Fold change /veh VCAN (11748164_a_at) / RFU JSRP1 (11732532_at) / Fold change /veh JSRP1 (11732532_at) / RFU KRTAP10-11 (11738290_x_at) / Fold change /veh KRTAP10-11 (11738290_x_at) / RFU MYO3A (11730013_a_at) / Fold change /veh MYO3A (11730013_a_at) / RFU EBF3 (11725865_a_at) / Fold change /veh EBF3 (11725865_a_at) / RFU CAMK2N1 (11719241_x_at) / Fold change /veh CAMK2N1 (11719241_x_at) / RFU C5orf56 (11738088_a_at) / Fold change /veh C5orf56 (11738088_a_at) / RFU OLFML3 (11715873_a_at) / Fold change /veh OLFML3 (11715873_a_at) / RFU LOC100653217 /// NTM (11731650_a_at) / Fold change /veh LOC100653217 /// NTM (11731650_a_at) / RFU MAPK11 (11762145_a_at) / Fold change /veh MAPK11 (11762145_a_at) / RFU FIZ1 (11724087_x_at) / Fold change /veh FIZ1 (11724087_x_at) / RFU OASL (11726364_x_at) / Fold change /veh OASL (11726364_x_at) / RFU SOX15 (11748057_x_at) / Fold change /veh SOX15 (11748057_x_at) / RFU CD79A (11719716_a_at) / Fold change /veh CD79A (11719716_a_at) / RFU HIST1H1D (11736915_at) / Fold change /veh HIST1H1D (11736915_at) / RFU CASKIN2 (11723855_a_at) / Fold change /veh CASKIN2 (11723855_a_at) / RFU LOC730098 (11760151_x_at) / Fold change /veh LOC730098 (11760151_x_at) / RFU OR4N2 (11742367_at) / Fold change /veh OR4N2 (11742367_at) / RFU PRRT2 (11749266_a_at) / Fold change /veh PRRT2 (11749266_a_at) / RFU SNX32 (11753110_a_at) / Fold change /veh SNX32 (11753110_a_at) / RFU CDHR5 (11726645_a_at) / Fold change /veh CDHR5 (11726645_a_at) / RFU RCAN1 (11760418_a_at) / Fold change /veh RCAN1 (11760418_a_at) / RFU FAM167A (11723789_a_at) / Fold change /veh FAM167A (11723789_a_at) / RFU FAM26E (11764081_at) / Fold change /veh FAM26E (11764081_at) / RFU ISYNA1 (11749810_s_at) / Fold change /veh ISYNA1 (11749810_s_at) / RFU ACY1 (11761880_at) / Fold change /veh ACY1 (11761880_at) / RFU 11764098_at / Fold change /veh 11764098_at / RFU SAMD14 (11745864_x_at) / Fold change /veh SAMD14 (11745864_x_at) / RFU NPB (11741838_a_at) / Fold change /veh NPB (11741838_a_at) / RFU TMPRSS6 (11731388_a_at) / Fold change /veh TMPRSS6 (11731388_a_at) / RFU KRTAP10-2 (11738614_at) / Fold change /veh KRTAP10-2 (11738614_at) / RFU ARHGAP8 /// PRR5-ARHGAP8 (11727945_x_at) / Fold change /veh ARHGAP8 /// PRR5-ARHGAP8 (11727945_x_at) / RFU KRTAP5-7 /// NADSYN1 (11734609_at) / Fold change /veh KRTAP5-7 /// NADSYN1 (11734609_at) / RFU RASL12 (11751679_a_at) / Fold change /veh RASL12 (11751679_a_at) / RFU CDKN2B (11736163_a_at) / Fold change /veh CDKN2B (11736163_a_at) / RFU PRF1 (11729649_at) / Fold change /veh PRF1 (11729649_at) / RFU, ZNF638 /// ZNF638-IT1 / Fold change vs veh, ZNF638 /// ZNF638-IT1 / RFU, PANK3 / Fold change vs veh, PANK3 / RFU, SH3YL1 / Fold change vs veh, SH3YL1 / RFU, ZEB2 / Fold change vs veh, ZEB2 / RFU, NRIP1 / Fold change vs veh, NRIP1 / RFU, PTTG1IP / Fold change vs veh, PTTG1IP / RFU, CAPN2 / Fold change vs veh, CAPN2 / RFU, MED14 / Fold change vs veh, MED14 / RFU, SNORA58 / Fold change vs veh, SNORA58 / RFU, C1orf63 / Fold change vs veh, C1orf63 / RFU, LRRFIP1 / Fold change vs veh, LRRFIP1 / RFU, NDUFAF7 / Fold change vs veh, NDUFAF7 / RFU, SLC12A2 / Fold change vs veh, SLC12A2 / RFU, IBTK / Fold change vs veh, IBTK / RFU, ESF1 / Fold change vs veh, ESF1 / Fold change vs veh, TMEM50B / RFU, TAOK1 / Fold change vs veh, TAOK1 / RFU, ACBD3 / Fold change vs veh, ACBD3 / RFU, TMA16 / Fold change vs veh, TMA16 / RFU, RWDD3 / Fold change vs veh, RWDD3 / RFU, BCAT1 / Fold change vs veh, BCAT1 / RFU, EDEM3 / Fold change vs veh, EDEM3 / RFU, TMEM33 / Fold change vs veh, TMEM33 / RFU, WDR75 / Fold change vs veh, WDR75 / RFU, AHCTF1 / Fold change vs veh, AHCTF1 / RFU, TFRC / Fold change vs veh, TFRC / RFU, ZDHHC17 / Fold change vs veh, ZDHHC17 / RFU, NOM1 / Fold change vs veh, NOM1 / RFU, ARL8B / Fold change vs veh, ARL8B / RFU, ZBTB11 / Fold change vs veh, ZBTB11 / RFU, TAMM41 / Fold change vs veh, TAMM41 / RFU, KIAA1704 /// LOC100996395 / Fold change vs veh, KIAA1704 /// LOC100996395 / RFU, ING1 / Fold change vs veh, ING1 / RFU, TRMT61B / Fold change vs veh, TRMT61B / RFU, FUBP3 / Fold change vs veh, FUBP3 / RFU, TP53 / Fold change vs veh, TP53 / RFU, TNKS2 / Fold change vs veh, TNKS2 / RFU, ZFP14 / Fold change vs veh, ZFP14 / RFU, ACTR2 / Fold change vs veh, ACTR2 / RFU, PPP3R1 / Fold change vs veh, PPP3R1 / RFU, PIK3R1 / Fold change vs veh, PIK3R1 / RFU, HNRNPA1 / Fold change vs veh, HNRNPA1 / RFU, RNF170 / Fold change vs veh, RNF170 / RFU, ZNF28 / Fold change vs veh, ZNF28 / RFU, RNGTT / Fold change vs veh, RNGTT / RFU, OGT / Fold change vs veh, OGT / RFU, BRD1 / Fold change vs veh, BRD1 / RFU, MARS / Fold change vs veh, MARS / RFU, ZNF655 / Fold change vs veh, ZNF655 / RFU, FAHD1 / Fold change vs veh, FAHD1 / RFU, BDP1 / Fold change vs veh, BDP1 / RFU, LRRCC1 / Fold change vs veh, LRRCC1 / RFU, ARID1A / Fold change vs veh, ARID1A / RFU, ZNF146 / Fold change vs veh, ZNF146 / RFU, ZNF330 / Fold change vs veh, ZNF330 / RFU, GPN3 / Fold change vs veh, GPN3 / RFU, C9orf123 / Fold change vs veh, C9orf123 / RFU, N4BP2L2 / Fold change vs veh, N4BP2L2 / RFU, ARFIP1 / Fold change vs veh, ARFIP1 / RFU, FAM179B / Fold change vs veh, FAM179B / RFU, BCL10 / Fold change vs veh, BCL10 / RFU, UHRF1BP1L / Fold change vs veh, UHRF1BP1L / RFU, BET1 / Fold change vs veh, BET1 / RFU, CNOT2 / Fold change vs veh, CNOT2 / RFU, ZNF268 / Fold change vs veh, ZNF268 / Fold change vs veh, ZNF507 / RFU, DGCR2 / Fold change vs veh, DGCR2 / RFU, WDSUB1 / Fold change vs veh, WDSUB1 / Fold change vs veh, HSP90B1 /// MIR3652 / RFU, ADSS / Fold change vs veh, ADSS / RFU, GK / Fold change vs veh, GK / RFU, ZNF148 / Fold change vs veh, ZNF148 / RFU, TAF9 / Fold change vs veh, TAF9 / RFU, SLC1A5 / Fold change vs veh, SLC1A5 / RFU, SLMO2 / Fold change vs veh, SLMO2 / RFU, ABCC4 / Fold change vs veh, ABCC4 / RFU, LOC101060439 /// RAP1B / Fold change vs veh, LOC101060439 /// RAP1B / RFU, RFX7 / Fold change vs veh, RFX7 / RFU, GTPBP10 / Fold change vs veh, GTPBP10 / RFU, CNEP1R1 / Fold change vs veh, CNEP1R1 / RFU, BIVM-ERCC5 /// ERCC5 / Fold change vs veh, BIVM-ERCC5 /// ERCC5 / RFU, ILF3 / Fold change vs veh, ILF3 / RFU 11762660_at / Fold change /veh 11762660_at / RFU VCAN (11757783_s_at) / Fold change /veh VCAN (11757783_s_at) / RFU DDX43 (11728927_at) / Fold change /veh DDX43 (11728927_at) / RFU KRT8 (11758188_x_at) / Fold change /veh KRT8 (11758188_x_at) / RFU NKD1 (11759106_at) / Fold change /veh NKD1 (11759106_at) / RFU SRD5A1 (11742802_a_at) / Fold change /veh SRD5A1 (11742802_a_at) / RFU TPSAB1 /// TPSB2 (11721975_s_at) / Fold change /veh TPSAB1 /// TPSB2 (11721975_s_at) / RFU GSTM3 (11746129_a_at) / Fold change /veh GSTM3 (11746129_a_at) / RFU IL23R (11737362_x_at) / Fold change /veh IL23R (11737362_x_at) / RFU TMEM51 (11727254_a_at) / Fold change /veh TMEM51 (11727254_a_at) / RFU PIWIL2 (11732686_x_at) / Fold change /veh PIWIL2 (11732686_x_at) / RFU ORM1 (11744905_x_at) / Fold change /veh ORM1 (11744905_x_at) / RFU CCDC152 (11743942_at) / Fold change /veh CCDC152 (11743942_at) / RFU ECM1 (11717891_a_at) / Fold change /veh ECM1 (11717891_a_at) / RFU IL23R (11748794_a_at) / Fold change /veh IL23R (11748794_a_at) / RFU TNFAIP8L3 (11732012_x_at) / Fold change /veh TNFAIP8L3 (11732012_x_at) / RFU MBOAT4 (11741988_at) / Fold change /veh MBOAT4 (11741988_at) / RFU 11764193_at / Fold change /veh 11764193_at / RFU TMEM53 (11763286_at) / Fold change /veh TMEM53 (11763286_at) / RFU MAGEB2 (11727129_at) / Fold change /veh MAGEB2 (11727129_at) / RFU TMEM200A (11744735_a_at) / Fold change /veh TMEM200A (11744735_a_at) / RFU CCDC152 (11751479_a_at) / Fold change /veh CCDC152 (11751479_a_at) / RFU FAM211A (11726209_a_at) / Fold change /veh FAM211A (11726209_a_at) / RFU RGS16 (11746705_a_at) / Fold change /veh RGS16 (11746705_a_at) / RFU VCAN (11755009_s_at) / Fold change /veh VCAN (11755009_s_at) / RFU RHOB (11743442_s_at) / Fold change /veh RHOB (11743442_s_at) / RFU RGS16 (11720943_a_at) / Fold change /veh RGS16 (11720943_a_at) / RFU RGS16 (11720944_at) / Fold change /veh RGS16 (11720944_at) / RFU, VPS4B / Fold change vs veh, VPS4B / RFU, CREB1 / Fold change vs veh, CREB1 / RFU, DNAJC13 / Fold change vs veh, DNAJC13 / RFU, GNAQ / Fold change vs veh, GNAQ / RFU, CDK5R1 / Fold change vs veh, CDK5R1 / RFU, ZRANB3 / Fold change vs veh, ZRANB3 / RFU, CUL4A / Fold change vs veh, CUL4A / RFU, CCNY / Fold change vs veh, CCNY / RFU, UFL1 / Fold change vs veh, UFL1 / RFU, COG3 / Fold change vs veh, COG3 / RFU, DIAPH2 / Fold change vs veh, DIAPH2 / RFU, SKA2 / Fold change vs veh, SKA2 / RFU, AFF3 / Fold change vs veh, AFF3 / RFU, LMF1 / Fold change vs veh, LMF1 / RFU, IPO11 / Fold change vs veh, IPO11 / RFU, DFFB / Fold change vs veh, DFFB / RFU, FOXP1 / Fold change vs veh, FOXP1 / RFU, CARD8 / Fold change vs veh, CARD8 / RFU, STRN3 / Fold change vs veh, STRN3 / RFU, ADK / Fold change vs veh, ADK / RFU, RASSF2 / Fold change vs veh, RASSF2 / RFU, WIPF1 / Fold change vs veh, WIPF1 / RFU, LARP1B / Fold change vs veh, LARP1B / RFU, RASA1 / Fold change vs veh, RASA1 / RFU, RB1 / Fold change vs veh, RB1 / RFU, PPFIA1 / Fold change vs veh, PPFIA1 / RFU, MAT2A / Fold change vs veh, MAT2A / RFU, CCT5 / Fold change vs veh, CCT5 / RFU, WDR92 / Fold change vs veh, WDR92 / RFU, CUX1 / Fold change vs veh, CUX1 / RFU, TTC7A / Fold change vs veh, TTC7A / RFU, TMEM135 / Fold change vs veh, TMEM135 / RFU, DEPTOR / Fold change vs veh, DEPTOR / RFU, CPM / Fold change vs veh, CPM / RFU, DNAJB6 / Fold change vs veh, DNAJB6 / RFU, CACNA2D3 / Fold change vs veh, CACNA2D3 / RFU, DTX4 / Fold change vs veh, DTX4 / RFU, TFCP2 / Fold change vs veh, TFCP2 / RFU, GMCL1 /// GMCL1P1 / Fold change vs veh, GMCL1 /// GMCL1P1 / RFU, AEBP2 / Fold change vs veh, AEBP2 / RFU, SNHG1 /// SNORD22 /// SNORD25 /// SNORD26 /// SNORD27 /// SNORD28 /// SNORD29 /// SNORD31 / Fold change vs veh, SNHG1 /// SNORD22 /// SNORD25 /// SNORD26 /// SNORD27 /// SNORD28 /// SNORD29 /// SNORD31 / Fold change (Aza/veh), C12orf56 (ProbeSet 11735607_a_at) / Fold change (ACY-1035/veh), C12orf56 (ProbeSet 11735607_a_at) / Fold change (Aza/veh), FGFR1OP (ProbeSet 11751329_s_at) / Fold change (ACY-1035/veh), FGFR1OP (ProbeSet 11751329_s_at) / Fold change (Aza/veh), VPS36 (ProbeSet 11739960_a_at) / Fold change (ACY-1035/veh), VPS36 (ProbeSet 11739960_a_at) / RFU SYPL1 (11715823_x_at) / Fold change /veh SYPL1 (11715823_x_at) / RFU IGFBP7 (11715501_s_at) / Fold change /veh IGFBP7 (11715501_s_at) / RFU REEP3 (11722064_at) / Fold change /veh REEP3 (11722064_at) / RFU IGLL1 (11728026_x_at) / Fold change /veh IGLL1 (11728026_x_at): dose or concentration left out as unconfirmed
Conditions: MV-4-11 cells, 48 hours

## Nc1ccc(-c2cccs2)cc1NC(=O)c1ccc2c(c1)cc(C1CC1)n2CCN1CCOCC1 [ACY-1035]
  RFU SRD5A1 (11742802_a_at): 49.09 RFU
